Data as given in paper PMC5218480 (PLoS ONE, 2017).

Tested on: MV-4-11 cells
Experiment: Gene expression microarray analysis (Affymetrix PrimeView) and GSEA
Format: cell-based, human
Set-up: RFU PODN (11730768_x_at) / Fold change /veh PODN (11730768_x_at) / RFU LINC00158 (11744669_a_at) / Fold change /veh LINC00158 (11744669_a_at) / RFU DUSP10 (11751237_a_at) / Fold change /veh DUSP10 (11751237_a_at) / RFU ID3 (11757404_x_at) / Fold change /veh ID3 (11757404_x_at) / RFU PLEKHG5 (11737974_s_at) / Fold change /veh PLEKHG5 (11737974_s_at) / RFU LRRC4B (11730491_at) / Fold change /veh LRRC4B (11730491_at) / RFU GIMAP4 (11747438_a_at) / Fold change /veh GIMAP4 (11747438_a_at) / RFU KRT8 (11758183_x_at) / Fold change /veh KRT8 (11758183_x_at) / RFU CNN1 (11734310_a_at) / Fold change /veh CNN1 (11734310_a_at) / RFU VPS37D (11726825_at) / Fold change /veh VPS37D (11726825_at) / RFU C10orf10 (11716522_x_at) / Fold change /veh C10orf10 (11716522_x_at) / RFU KIR2DL2 /// KIR2DL4 /// KIR2DL5A /// KIR2DL5B /// KIR2DS1 /// KIR2DS2 /// KIR2DS3 /// KIR2DS4 /// KIR3DL3 /// KIR3DL3 /// KIR3DS1 (11738374_at) / Fold change /veh KIR2DL2 /// KIR2DL4 /// KIR2DL5A /// KIR2DL5B /// KIR2DS1 /// KIR2DS2 /// KIR2DS3 /// KIR2DS4 /// KIR3DL3 /// KIR3DL3 /// KIR3DS1 (11738374_at) / RFU C1QL1 (11718748_at) / Fold change /veh C1QL1 (11718748_at) / RFU TMPRSS4 (11747572_a_at) / Fold change /veh TMPRSS4 (11747572_a_at) / RFU HAMP (11756126_x_at) / Fold change /veh HAMP (11756126_x_at) / RFU RNFT2 (11725882_a_at) / Fold change /veh RNFT2 (11725882_a_at) / RFU NR4A2 (11747474_a_at) / Fold change /veh NR4A2 (11747474_a_at) / RFU ABCC12 (11746883_a_at) / Fold change /veh ABCC12 (11746883_a_at) / RFU TMEM136 (11760407_x_at) / Fold change /veh TMEM136 (11760407_x_at) / RFU CLDN22 /// WWC2 (11732394_at) / Fold change /veh CLDN22 /// WWC2 (11732394_at) / RFU HLA-DPB1 (11760878_x_at) / Fold change /veh HLA-DPB1 (11760878_x_at) / RFU SPINT1 (11716480_a_at) / Fold change /veh SPINT1 (11716480_a_at) / RFU GAP43 (11754022_s_at) / Fold change /veh GAP43 (11754022_s_at) / RFU A4GNT (11735810_at) / Fold change /veh A4GNT (11735810_at) / RFU PRB3 (11715151_x_at) / Fold change /veh PRB3 (11715151_x_at) / RFU TUBB4B (11761932_at) / Fold change /veh TUBB4B (11761932_at) / RFU CAPN14 (11732068_a_at) / Fold change /veh CAPN14 (11732068_a_at) / RFU TMCC2 (11721928_a_at) / Fold change /veh TMCC2 (11721928_a_at) / RFU IRGQ (11745062_a_at) / Fold change /veh IRGQ (11745062_a_at) / RFU FAM174B (11720279_a_at) / Fold change /veh FAM174B (11720279_a_at) / RFU TMPRSS4 (11748680_a_at) / Fold change /veh TMPRSS4 (11748680_a_at) / RFU FAM212B (11763350_a_at) / Fold change /veh FAM212B (11763350_a_at) / RFU PLEKHG5 (11743358_a_at) / Fold change /veh PLEKHG5 (11743358_a_at) / RFU ZSCAN30 (11745921_a_at) / Fold change /veh ZSCAN30 (11745921_a_at) / RFU CMKLR1 (11741424_a_at) / Fold change /veh CMKLR1 (11741424_a_at) / RFU LOC101060620 /// MAPK8IP1 (11723275_at) / Fold change /veh LOC101060620 /// MAPK8IP1 (11723275_at) / RFU SPTSSB (11747773_x_at) / Fold change /veh SPTSSB (11747773_x_at) / RFU PRSS12 (11739890_at) / Fold change /veh PRSS12 (11739890_at) / RFU BIN1 (11741810_x_at) / Fold change /veh BIN1 (11741810_x_at) / RFU WNT11 (11732464_a_at) / Fold change /veh WNT11 (11732464_a_at) / RFU C10orf10 (11716521_a_at) / Fold change /veh C10orf10 (11716521_a_at) / RFU C5orf56 (11738089_at) / Fold change /veh C5orf56 (11738089_at) / RFU CYB561 (11721691_x_at) / Fold change /veh CYB561 (11721691_x_at) / RFU ANKRD19P (11752326_a_at) / Fold change /veh ANKRD19P (11752326_a_at) / RFU OR2T12 /// OR2T33 /// OR2T8 (11738714_s_at) / Fold change /veh OR2T12 /// OR2T33 /// OR2T8 (11738714_s_at) / RFU VCAN (11748164_a_at) / Fold change /veh VCAN (11748164_a_at) / RFU JSRP1 (11732532_at) / Fold change /veh JSRP1 (11732532_at) / RFU KRTAP10-11 (11738290_x_at) / Fold change /veh KRTAP10-11 (11738290_x_at) / RFU MYO3A (11730013_a_at) / Fold change /veh MYO3A (11730013_a_at) / RFU EBF3 (11725865_a_at) / Fold change /veh EBF3 (11725865_a_at) / RFU CAMK2N1 (11719241_x_at) / Fold change /veh CAMK2N1 (11719241_x_at) / RFU C5orf56 (11738088_a_at) / Fold change /veh C5orf56 (11738088_a_at) / RFU OLFML3 (11715873_a_at) / Fold change /veh OLFML3 (11715873_a_at) / RFU LOC100653217 /// NTM (11731650_a_at) / Fold change /veh LOC100653217 /// NTM (11731650_a_at) / RFU MAPK11 (11762145_a_at) / Fold change /veh MAPK11 (11762145_a_at) / RFU FIZ1 (11724087_x_at) / Fold change /veh FIZ1 (11724087_x_at) / RFU OASL (11726364_x_at) / Fold change /veh OASL (11726364_x_at) / RFU SOX15 (11748057_x_at) / Fold change /veh SOX15 (11748057_x_at) / RFU CD79A (11719716_a_at) / Fold change /veh CD79A (11719716_a_at) / RFU HIST1H1D (11736915_at) / Fold change /veh HIST1H1D (11736915_at) / RFU CASKIN2 (11723855_a_at) / Fold change /veh CASKIN2 (11723855_a_at) / RFU LOC730098 (11760151_x_at) / Fold change /veh LOC730098 (11760151_x_at) / RFU OR4N2 (11742367_at) / Fold change /veh OR4N2 (11742367_at) / RFU PRRT2 (11749266_a_at) / Fold change /veh PRRT2 (11749266_a_at) / RFU SNX32 (11753110_a_at) / Fold change /veh SNX32 (11753110_a_at) / RFU CDHR5 (11726645_a_at) / Fold change /veh CDHR5 (11726645_a_at) / RFU RCAN1 (11760418_a_at) / Fold change /veh RCAN1 (11760418_a_at) / RFU FAM167A (11723789_a_at) / Fold change /veh FAM167A (11723789_a_at) / RFU FAM26E (11764081_at) / Fold change /veh FAM26E (11764081_at) / RFU ISYNA1 (11749810_s_at) / Fold change /veh ISYNA1 (11749810_s_at) / RFU ACY1 (11761880_at) / Fold change /veh ACY1 (11761880_at) / RFU 11764098_at / Fold change /veh 11764098_at / RFU SAMD14 (11745864_x_at) / Fold change /veh SAMD14 (11745864_x_at) / RFU NPB (11741838_a_at) / Fold change /veh NPB (11741838_a_at) / RFU TMPRSS6 (11731388_a_at) / Fold change /veh TMPRSS6 (11731388_a_at) / RFU KRTAP10-2 (11738614_at) / Fold change /veh KRTAP10-2 (11738614_at) / RFU ARHGAP8 /// PRR5-ARHGAP8 (11727945_x_at) / Fold change /veh ARHGAP8 /// PRR5-ARHGAP8 (11727945_x_at) / RFU KRTAP5-7 /// NADSYN1 (11734609_at) / Fold change /veh KRTAP5-7 /// NADSYN1 (11734609_at) / RFU RASL12 (11751679_a_at) / Fold change /veh RASL12 (11751679_a_at) / RFU CDKN2B (11736163_a_at) / Fold change /veh CDKN2B (11736163_a_at) / RFU PRF1 (11729649_at) / Fold change /veh PRF1 (11729649_at) / RFU, ZNF638 /// ZNF638-IT1 / Fold change vs veh, ZNF638 /// ZNF638-IT1 / RFU, PANK3 / Fold change vs veh, PANK3 / RFU, SH3YL1 / Fold change vs veh, SH3YL1 / RFU, ZEB2 / Fold change vs veh, ZEB2 / RFU, NRIP1 / Fold change vs veh, NRIP1 / RFU, PTTG1IP / Fold change vs veh, PTTG1IP / RFU, CAPN2 / Fold change vs veh, CAPN2 / RFU, MED14 / Fold change vs veh, MED14 / RFU, SNORA58 / Fold change vs veh, SNORA58 / RFU, C1orf63 / Fold change vs veh, C1orf63 / RFU, LRRFIP1 / Fold change vs veh, LRRFIP1 / RFU, NDUFAF7 / Fold change vs veh, NDUFAF7 / RFU, SLC12A2 / Fold change vs veh, SLC12A2 / RFU, IBTK / Fold change vs veh, IBTK / RFU, ESF1 / Fold change vs veh, ESF1 / Fold change vs veh, TMEM50B / RFU, TAOK1 / Fold change vs veh, TAOK1 / RFU, ACBD3 / Fold change vs veh, ACBD3 / RFU, TMA16 / Fold change vs veh, TMA16 / RFU, RWDD3 / Fold change vs veh, RWDD3 / RFU, BCAT1 / Fold change vs veh, BCAT1 / RFU, EDEM3 / Fold change vs veh, EDEM3 / RFU, TMEM33 / Fold change vs veh, TMEM33 / RFU, WDR75 / Fold change vs veh, WDR75 / RFU, AHCTF1 / Fold change vs veh, AHCTF1 / RFU, TFRC / Fold change vs veh, TFRC / RFU, ZDHHC17 / Fold change vs veh, ZDHHC17 / RFU, NOM1 / Fold change vs veh, NOM1 / RFU, ARL8B / Fold change vs veh, ARL8B / RFU, ZBTB11 / Fold change vs veh, ZBTB11 / RFU, TAMM41 / Fold change vs veh, TAMM41 / RFU, KIAA1704 /// LOC100996395 / Fold change vs veh, KIAA1704 /// LOC100996395 / RFU, ING1 / Fold change vs veh, ING1 / RFU, TRMT61B / Fold change vs veh, TRMT61B / RFU, FUBP3 / Fold change vs veh, FUBP3 / RFU, TP53 / Fold change vs veh, TP53 / RFU, TNKS2 / Fold change vs veh, TNKS2 / RFU, ZFP14 / Fold change vs veh, ZFP14 / RFU, ACTR2 / Fold change vs veh, ACTR2 / RFU, PPP3R1 / Fold change vs veh, PPP3R1 / RFU, PIK3R1 / Fold change vs veh, PIK3R1 / RFU, HNRNPA1 / Fold change vs veh, HNRNPA1 / RFU, RNF170 / Fold change vs veh, RNF170 / RFU, ZNF28 / Fold change vs veh, ZNF28 / RFU, RNGTT / Fold change vs veh, RNGTT / RFU, OGT / Fold change vs veh, OGT / RFU, BRD1 / Fold change vs veh, BRD1 / RFU, MARS / Fold change vs veh, MARS / RFU, ZNF655 / Fold change vs veh, ZNF655 / RFU, FAHD1 / Fold change vs veh, FAHD1 / RFU, BDP1 / Fold change vs veh, BDP1 / RFU, LRRCC1 / Fold change vs veh, LRRCC1 / RFU, ARID1A / Fold change vs veh, ARID1A / RFU, ZNF146 / Fold change vs veh, ZNF146 / RFU, ZNF330 / Fold change vs veh, ZNF330 / RFU, GPN3 / Fold change vs veh, GPN3 / RFU, C9orf123 / Fold change vs veh, C9orf123 / RFU, N4BP2L2 / Fold change vs veh, N4BP2L2 / RFU, ARFIP1 / Fold change vs veh, ARFIP1 / RFU, FAM179B / Fold change vs veh, FAM179B / RFU, BCL10 / Fold change vs veh, BCL10 / RFU, UHRF1BP1L / Fold change vs veh, UHRF1BP1L / RFU, BET1 / Fold change vs veh, BET1 / RFU, CNOT2 / Fold change vs veh, CNOT2 / RFU, ZNF268 / Fold change vs veh, ZNF268 / Fold change vs veh, ZNF507 / RFU, DGCR2 / Fold change vs veh, DGCR2 / RFU, WDSUB1 / Fold change vs veh, WDSUB1 / Fold change vs veh, HSP90B1 /// MIR3652 / RFU, ADSS / Fold change vs veh, ADSS / RFU, GK / Fold change vs veh, GK / RFU, ZNF148 / Fold change vs veh, ZNF148 / RFU, TAF9 / Fold change vs veh, TAF9 / RFU, SLC1A5 / Fold change vs veh, SLC1A5 / RFU, SLMO2 / Fold change vs veh, SLMO2 / RFU, ABCC4 / Fold change vs veh, ABCC4 / RFU, LOC101060439 /// RAP1B / Fold change vs veh, LOC101060439 /// RAP1B / RFU, RFX7 / Fold change vs veh, RFX7 / RFU, GTPBP10 / Fold change vs veh, GTPBP10 / RFU, CNEP1R1 / Fold change vs veh, CNEP1R1 / RFU, BIVM-ERCC5 /// ERCC5 / Fold change vs veh, BIVM-ERCC5 /// ERCC5 / RFU, ILF3 / Fold change vs veh, ILF3 / RFU 11762660_at / Fold change /veh 11762660_at / RFU VCAN (11757783_s_at) / Fold change /veh VCAN (11757783_s_at) / RFU DDX43 (11728927_at) / Fold change /veh DDX43 (11728927_at) / RFU KRT8 (11758188_x_at) / Fold change /veh KRT8 (11758188_x_at) / RFU NKD1 (11759106_at) / Fold change /veh NKD1 (11759106_at) / RFU SRD5A1 (11742802_a_at) / Fold change /veh SRD5A1 (11742802_a_at) / RFU TPSAB1 /// TPSB2 (11721975_s_at) / Fold change /veh TPSAB1 /// TPSB2 (11721975_s_at) / RFU GSTM3 (11746129_a_at) / Fold change /veh GSTM3 (11746129_a_at) / RFU IL23R (11737362_x_at) / Fold change /veh IL23R (11737362_x_at) / RFU TMEM51 (11727254_a_at) / Fold change /veh TMEM51 (11727254_a_at) / RFU PIWIL2 (11732686_x_at) / Fold change /veh PIWIL2 (11732686_x_at) / RFU ORM1 (11744905_x_at) / Fold change /veh ORM1 (11744905_x_at) / RFU CCDC152 (11743942_at) / Fold change /veh CCDC152 (11743942_at) / RFU ECM1 (11717891_a_at) / Fold change /veh ECM1 (11717891_a_at) / RFU IL23R (11748794_a_at) / Fold change /veh IL23R (11748794_a_at) / RFU TNFAIP8L3 (11732012_x_at) / Fold change /veh TNFAIP8L3 (11732012_x_at) / RFU MBOAT4 (11741988_at) / Fold change /veh MBOAT4 (11741988_at) / RFU 11764193_at / Fold change /veh 11764193_at / RFU TMEM53 (11763286_at) / Fold change /veh TMEM53 (11763286_at) / RFU MAGEB2 (11727129_at) / Fold change /veh MAGEB2 (11727129_at) / RFU TMEM200A (11744735_a_at) / Fold change /veh TMEM200A (11744735_a_at) / RFU CCDC152 (11751479_a_at) / Fold change /veh CCDC152 (11751479_a_at) / RFU FAM211A (11726209_a_at) / Fold change /veh FAM211A (11726209_a_at) / RFU RGS16 (11746705_a_at) / Fold change /veh RGS16 (11746705_a_at) / RFU VCAN (11755009_s_at) / Fold change /veh VCAN (11755009_s_at) / RFU RHOB (11743442_s_at) / Fold change /veh RHOB (11743442_s_at) / RFU RGS16 (11720943_a_at) / Fold change /veh RGS16 (11720943_a_at) / RFU RGS16 (11720944_at) / Fold change /veh RGS16 (11720944_at) / RFU, VPS4B / Fold change vs veh, VPS4B / RFU, CREB1 / Fold change vs veh, CREB1 / RFU, DNAJC13 / Fold change vs veh, DNAJC13 / RFU, GNAQ / Fold change vs veh, GNAQ / RFU, CDK5R1 / Fold change vs veh, CDK5R1 / RFU, ZRANB3 / Fold change vs veh, ZRANB3 / RFU, CUL4A / Fold change vs veh, CUL4A / RFU, CCNY / Fold change vs veh, CCNY / RFU, UFL1 / Fold change vs veh, UFL1 / RFU, COG3 / Fold change vs veh, COG3 / RFU, DIAPH2 / Fold change vs veh, DIAPH2 / RFU, SKA2 / Fold change vs veh, SKA2 / RFU, AFF3 / Fold change vs veh, AFF3 / RFU, LMF1 / Fold change vs veh, LMF1 / RFU, IPO11 / Fold change vs veh, IPO11 / RFU, DFFB / Fold change vs veh, DFFB / RFU, FOXP1 / Fold change vs veh, FOXP1 / RFU, CARD8 / Fold change vs veh, CARD8 / RFU, STRN3 / Fold change vs veh, STRN3 / RFU, ADK / Fold change vs veh, ADK / RFU, RASSF2 / Fold change vs veh, RASSF2 / RFU, WIPF1 / Fold change vs veh, WIPF1 / RFU, LARP1B / Fold change vs veh, LARP1B / RFU, RASA1 / Fold change vs veh, RASA1 / RFU, RB1 / Fold change vs veh, RB1 / RFU, PPFIA1 / Fold change vs veh, PPFIA1 / RFU, MAT2A / Fold change vs veh, MAT2A / RFU, CCT5 / Fold change vs veh, CCT5 / RFU, WDR92 / Fold change vs veh, WDR92 / RFU, CUX1 / Fold change vs veh, CUX1 / RFU, TTC7A / Fold change vs veh, TTC7A / RFU, TMEM135 / Fold change vs veh, TMEM135 / RFU, DEPTOR / Fold change vs veh, DEPTOR / RFU, CPM / Fold change vs veh, CPM / RFU, DNAJB6 / Fold change vs veh, DNAJB6 / RFU, CACNA2D3 / Fold change vs veh, CACNA2D3 / RFU, DTX4 / Fold change vs veh, DTX4 / RFU, TFCP2 / Fold change vs veh, TFCP2 / RFU, GMCL1 /// GMCL1P1 / Fold change vs veh, GMCL1 /// GMCL1P1 / RFU, AEBP2 / Fold change vs veh, AEBP2 / RFU, SNHG1 /// SNORD22 /// SNORD25 /// SNORD26 /// SNORD27 /// SNORD28 /// SNORD29 /// SNORD31 / Fold change vs veh, SNHG1 /// SNORD22 /// SNORD25 /// SNORD26 /// SNORD27 /// SNORD28 /// SNORD29 /// SNORD31 / Fold change (Aza/veh), C12orf56 (ProbeSet 11735607_a_at) / Fold change (ACY-1035/veh), C12orf56 (ProbeSet 11735607_a_at) / Fold change (Aza/veh), FGFR1OP (ProbeSet 11751329_s_at) / Fold change (ACY-1035/veh), FGFR1OP (ProbeSet 11751329_s_at) / Fold change (Aza/veh), VPS36 (ProbeSet 11739960_a_at) / Fold change (ACY-1035/veh), VPS36 (ProbeSet 11739960_a_at) / RFU SYPL1 (11715823_x_at) / Fold change /veh SYPL1 (11715823_x_at) / RFU IGFBP7 (11715501_s_at) / Fold change /veh IGFBP7 (11715501_s_at) / RFU REEP3 (11722064_at) / Fold change /veh REEP3 (11722064_at) / RFU IGLL1 (11728026_x_at) / Fold change /veh IGLL1 (11728026_x_at): dose or concentration left out as unconfirmed
Details: MV-4-11 cells, 48 hours

With `Nc1ncn([C@@H]2O[C@H](CO)[C@@H](O)[C@H]2O)c(=O)n1` [azacitidine] the “RFU PRSS12 (11739890_at)” value was 6.78 RFU.
